{
  "source": "patent US11400104B2",
  "about": "“Skeletal removal of bisphosphonates” (The Regents of the University of California, priority 2016, dated 2022)",
  "key": {"[1]": {"system": "mouse femur trabecular bone", "test": "micro CT evaluation of mouse femur trabecular structure (anti-resorptive function in vivo)", "settings": "IV 184 μM×100 μL; femurs 2 weeks after injection; FIG. 14", "description": "FIG. 19A to FIG. 19C present evidence that certain alkylidene bisphosphonates can be used to displace active BPs in vivo in the mouse model. […] FIG. 19B outlines the protocol for the experiments using MHDP to treat C57B16 mice. An ONJ-like lesion was generated by ZOL IV injection into the mouse, followed by extraction of the maxillary first molar. One day prior to the tooth extraction, a group of mice received intra-oral injection of 2 μg MHDP and another group received IV injection of 100 μg MHDP. FIG. 19C presents images of the mouse maxilla.\nThis study determines the anti-resorptive function of FL-BP in vivo, as compared to ZOL. Female B6 mice were injected with 50 μM ZOL (n=6), 50 μM FL-BP (n=6) or 0.9% NaCl vehicle solution (control: n=6) via tail vein. Three weeks later, mice were euthanized and femur and L4/L5 were harvested. After fixed in 10% buffered formalin, bone samples were subjected to micro CT analysis. The anti-resorptive function were quantitatively established by the trabecular bone three-dimensional morphometry (e.g., BV/TV, Tb.N, Tb.Th, TbSp). FL-BPs with minimal or no pharmacological BP function are used.\nMice were IV injected with 0.9% NaCl (vehicle solution), ZOL (184 μM×100 μL=5.0 μg/animal) or AF647-ZOL (184 μM×100 μL=22.0 μg/animal) and femurs were harvested 2 weeks after injection. The micro CT data were compared."}, "[2]": {"system": "ZOL-induced mouse BRONJ model", "test": "ZOL-induced mouse BRONJ/ONJ model (ZOL IV injection followed by maxillary first molar extraction)", "format": "in vivo", "description": "AF647-ZOL was applied by intra-oral injection or IV injection 1 day prior to tooth extraction. FIG. 16B are images of mouse maxilla and the oral mucosa inflammation and swelling (white dotted lines, left and right panels) with various degrees of jawbone exposure (arrow) at the tooth extraction site of ZOL-treated mice (BRONJ control: n−4). […]\nPanel A is a diagram of the experimental time line. Mice treated by IV injection of ZOL (500 μg/kg) received an intra-oral injection of AF647-ZOL, MHDP or ETI (etidronate) one day prior to maxillary 1″ molar extraction. The development of ONJ was evaluated 14 days after tooth extraction.\nThe C57BL/6J (B6) mice model of ONJ is used. The consistent tissue source in this study is mouse maxillary bone with or without tooth extraction, as well as femurs, mandibles and L4/L5 lumber bones. Tooth extraction animal models for studying wound healing in mice have been well established in our and other laboratories. Systemic bisphosphonate treatment is accomplished by IV injection and the proposed local application of FL-BP is accomplished by intraoral injection to gingival/palatal tissue of mouse maxilla. Mice are subjected to maxillary molar extraction. After anesthesia and vital signs checked, the animal is placed on a bed supporting the isoflurane tubing while keeping the mouth opening. Ophthalmic ointment (bland, e.g., Lacrilube) is applied. The maxillary molar area is wiped with 0.12% Chlorhexidine gluconate solution (Peridex, oral rinse). An autoclaved dental explorer is used as an exodontia elevator after careful reflection of the cervical mucosa to minimize post-extraction discomfort. An autoclaved cotton swab is placed on the extraction socket until the initial blood coagulation is established. Maxillary 1st molar is then extracted unilaterally from so that the remaining untreated side can be utilized for chewing. In our previous experiments, the entire procedure takes about 5-15 minutes. […]\nIn a preliminary study female B6 mice were injected 500 μg/Kg ZOL (equivalent to 200 μl of 350 μM ZOL) via tail vein and one week later, maxillary left first molar was extracted. […]\nTherefore, as schematically shown in FIG. 19B mouse maxillae were treated with ZOL and then either 2 μg of MHDP was orally injected to the site of the molar to be extracted or 100 μg of MHDP was IV injected and the sites of molar extraction of treated mouse maxilla were compared to controls."}, "mouse femurs": {"system": "mouse femurs", "test": "AF647-ZOL signal in distant bone (femurs) in the BRONJ mouse model", "format": "in vivo", "description": "AF647-ZOL was applied by intra-oral injection or IV injection 1 day prior to tooth extraction. FIG. 16B are images of mouse maxilla and the oral mucosa inflammation and swelling (white dotted lines, left and right panels) with various degrees of jawbone exposure (arrow) at the tooth extraction site of ZOL-treated mice (BRONJ control: n−4).\nMice received a bolus IV injection of ZOL (440 μg/Kg; 294 μM×100 μL=8.0 μg/animal) from retro-orbital venous plexus. […] The AF647-ZOL signal in distant bone was assessed in femurs."}, "[3]": {"settings": "AF647-ZOL IV 500 μM×100 μL 1 day before extraction, 2 weeks after extraction"}},
  "note": "Entries after “also recorded” stand apart in the source; their conditions may differ.",
  "data": [
    {"smiles": "CC1(C)C(C=CC=CC=C2N(CCCS(=O)(=O)O)c3ccc(S(=O)(=O)O)cc3C2(C)CCCCCC(=O)NCC(O)C[n+]2ccn(CC(O)(P(=O)(O)O)P(=O)(O)O)c2)=[N+](CCCS(=O)(=O)O)c2ccc(S(=O)(=O)O)cc21", "note": "(centres unmarked) [AF647-ZOL]", "values": [
      {"measurement": "bone structural parameters", "setting": "[1]", "value": "did not change any of bone structural parameters"},
      {"measurement": "histology of maxilla at the tooth extraction site: ONJ-like lesion", "setting": "[2]; 2 weeks after extraction, one time oral injection in ZOL-mice, FIG. 20", "value": "did not develop an ONJ-like lesion"},
      {"measurement": "BRONJ-like lesions, jawbone exposure", "setting": "[2]; [3]", "value": "jawbone exposure was much attenuated; also recorded: attenuated BRONJ-like lesions"},
      {"measurement": "oral mucosa inflammation/swelling", "setting": "[2]; [3]", "value": "some mice which received an AF647-ZOL IV injection showed signs of oral mucosa inflammation/swelling"},
      {"measurement": "prevention of BRONJ, tooth extraction wound healing", "setting": "[2]; AF647-ZOL intra-oral 250 μM×2 μL 1 day before extraction, 2 weeks after extraction", "value": "complete prevention of BRONJ; also recorded: excellent tooth extraction wound healing without chronic inflammation or swelling"},
      {"measurement": "development of ONJ-like lesions at the tooth extraction sites", "setting": "[2]; ZOL 500 μg/kg IV, intra-oral injection one day prior to extraction, 14 days after extraction, FIG. 21", "value": "appeared to be prevented"},
      {"measurement": "AF647-ZOL signal in femurs", "setting": "mouse femurs; IV injection 500 μM×100 μL", "value": "clear AF647-ZOL signal; also recorded: clearly observed"},
      {"measurement": "AF647-ZOL signal in femurs", "setting": "mouse femurs; intra-oral injection 250 μM×2 μL", "value": "not and did not result in a detectable fluorescent signal"}
    ]}
  ]
}
